The text below walks through data of paper PMC5908301, “Small molecule CXCR4 antagonists block the HIV-1 Nef/CXCR4 axis and selectively initiate the apoptotic program in breast cancer cells” (Oncotarget, 2018).

Entries after “also recorded” stand apart in the source; their conditions may differ. Read-outs that look alike come from different tables or passages of the source.

In experiment [1] the test system is Jurkat T-lymphocyte cells. In words: Inhibition of Nef M1 peptide-induced mitochondrial depolarization/apoptosis in Jurkat cells (JC-1). It is filed as cell-based, human. The conditions noted are these: for EC50: JC-1; for protection against M1 (control drugs): data not shown.
A further experiment has as its system HIV-1IIIB. Put plainly: MAGI antiviral (entry) assay with HIV-1IIIB in HeLa-derived MAGI-CCR5/CXCR4 cells. It is filed as cell-based. On the procedure:
MAGI-CCR5/CXCR4 cells are derived from HeLa-CD4-LTR-β-gal cells. The cells have been engineered to express high levels of CD4 and CXCR4 and contain one copy of the HIV-1 LTR promoter driving expression of the β-galactosidase gene upon HIV-1 Tat transactivation. On the day preceding the assay, the cells are plated at 1 × 10^4 well and incubated at 37°C overnight. Total cell and viability quantification is performed using a hemacytometer and trypan blue exclusion.
The virus used for these tests is the CXCR4-tropic strain HIV-1IIIB. […] For each assay, a pre-titered aliquot of virus is removed from the freezer (−80°C) and allowed to thaw slowly to room temperature in a biological safety cabinet.
Compounds are evaluated at one or two concentrations (e.g., for initial screening) or in dose-response at six concentrations (triplicate wells/concentration). On the day of assay setup, compound dilutions are prepared at two-times (2×) the final required concentrations. Media used for plating the cells the day before assay setup is aspirated from the plates and replaced with 50 μL of the 2× compounds, followed by the addition of 50 μL of virus, which dilutes the compounds to the final 1X concentrations. Cell control wells (cells only) and virus control wells (cells plus virus) are included on each assay plate. Identical uninfected assay plates (virus replaced with media) are prepared for parallel cytotoxicity testing.
Once HIV-1 has attached and entered the MAGI-CXCR4 cells, HIV-1 Tat transactivates the LTR dependent β-galactosidase enzyme to express higher than normal levels of β-galactosidase. […] At 48 hours or 6 days post infection, plates are aspirated, and PBS is added to each well. Gal-screen reagent (Tropix, Bedford, MA) is then added per the manufacturer's instructions for chemiluminescent detection of β-galactosidase activity and incubated at room temperature for 90 minutes. The resulting chemiluminescence signal is then read using a Microbeta Trilux luminescence reader (PerkinElmer/Wallac).
Percent inhibition of virus replication and percent cell viability at each concentration are calculated using an in-house computer program. […] Raw data for both antiviral activity and cytotoxicity with analyzed/tabulated data are provided in a printout summarizing the individual compound activity. For dose-response testing, a graphical representation of the data is also provided.

In experiment [2] the test system is MDA-MB-231 cells. Conditions: Figure 8B, TUNEL. Here is the method: (D) MDA-MB-231 cells mock treated were analyzed via TUNEL.
(§1) Cells were grown to 80% confluence in 35 mm plates, either untreated or treated with 10 ng/ml of Nef Motif1 or CXCR4 antagonists for 24 hours. The cells were washed twice in ice-cold PBS and then fixed in 4% paraformaldehyde 1 hour. TUNEL assay for apoptosis and microscopy were done as described previously.

The subject of experiment [3] is MDA-MB-231 cells. Put plainly: Mitochondrial depolarization of MDA-MB-231 breast cancer cells (JC-1 stain). The conditions noted are these: for depolarization of MDA-MB-231 cells in dose response (qualitative): Figure 10; for EC50 / inhibition at 100 µM: Homo sapiens; for inhibition at 100 µM: MDA-MB-231, read-out: inhibition (effect) reached in MDA-MB-231 depolarization assay; for depolarization of MDA-MB-231 cells (qualitative): at concentrations below 10 μM; for depolarization/apoptosis of MDA-MB-231 cells (qualitative): up to 100 μM.

Another experiment deals with T1, CXCR4 (Homo sapiens, UniProt P61073).
T1 construct: CXCR4-expressing CEM cells; endogenous in cells; host or cells: CEM cells
Put plainly: Inhibition of SDF-1α-mediated calcium flux in CXCR4-expressing CEM cells. The conditions noted are these: for IC50: read-out: CEM SDF-1 Ca2+ Flux IC50. It is filed as cell-based. On the procedure:
CXCR4- expressing CEM cells were loaded with Fluo-4, washed, and pre- incubated with the indicated concentrations of test compounds for 10 min.
A general note: A change in cytosolic calcium serves as a functional read-out for many receptors and channels.

Another experiment concerns Jurkat cells. In words: M1 peptide-induced apoptosis in Jurkat cultures (TUNEL). It is filed as cell-based, human. On the procedure:
(A) Fluorescent microscopy images of Jurkat cultures stained via TUNEL. (B) TUNEL stained cells were counted and quantified. Fluorescent microscopy images were arranged with Adobe photoshop 6.0 software and analyzed by Image-Pro 6.3 software (Media Cybernetics, Silver Spring, MD).
as §1

[4] abbreviates: Homo sapiens, Jurkat, read-out: EC50 against M1-mediated apoptosis in Jurkat cells.
The mark [5] stands for this setting: Human immunodeficiency virus 1, MAGI, read-out: HIV-1IIIB MAGI IC50.
Where [6] appears, read: Human immunodeficiency virus 1, MAGI-CCR5/CXCR4 cells, β-galactosidase reporter, read-out: HeLa HIV-1IIIB MAGI IC50.
Where [7] appears, read: MDA-MB-231, 24 h, read-out: MDA-MB-231 Depolarization EC50.
Setting [8] is: Homo sapiens, Jurkat, 24 h, concentration inhibiting M1-induced mitochondrial depolarization by 50%, 10 ng/mL M1, 24 h, read-out: Jurkat M1 Inhibition EC50.
[9] abbreviates: MDA-MB-231, read-out: EC50 depolarization/apoptosis of MDA-MB-231 cells.

One may read the IC50 as the concentration that inhibits the measured activity by half. As usually defined, the inhibition is the percentage by which the read-out fell short of the control.

T1 sequence (P61073 whole entry): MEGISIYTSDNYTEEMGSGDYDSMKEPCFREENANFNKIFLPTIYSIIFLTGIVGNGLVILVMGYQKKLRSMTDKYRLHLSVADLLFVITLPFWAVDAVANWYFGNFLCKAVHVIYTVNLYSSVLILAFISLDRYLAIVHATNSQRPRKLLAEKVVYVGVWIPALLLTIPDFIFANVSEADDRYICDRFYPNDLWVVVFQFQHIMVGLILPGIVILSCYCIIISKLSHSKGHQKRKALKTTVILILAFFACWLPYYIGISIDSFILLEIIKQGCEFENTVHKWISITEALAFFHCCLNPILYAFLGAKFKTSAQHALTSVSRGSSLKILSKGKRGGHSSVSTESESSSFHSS

Turning to `c1cc(CN2CCCNCCNCCCNCC2)ccc1CN1CCCNCCNCCCNCC1` [AMD3100, reference compound], the EC50 in experiment [1] (setting [4]) turned out to be 473 nM; with MDA-MB-231 cells [3] (setting [7]), 123 nM. In addition, the IC50 was 2 to 5 nM in the experiment on HIV-1IIIB (setting [5]) and 2 nM with HIV-1IIIB (setting [6]). In addition, the “Apoptosis (%)” value with MDA-MB-231 cells [2] worked out at 89.5%. In addition, the “Depolarization (%)” value with MDA-MB-231 cells [3] (Figure 8A, JC-1 staining) is 91%. The “depolarization of MDA-MB-231 cells in dose response (qualitative)” value with MDA-MB-231 cells [3] is “significant depolarization”.
Turning to `Cc1cn([C@H]2C[C@H](N=[N+]=[N-])[C@@H](CO)O2)c(=O)[nH]c1=O` [AZT, reference compound], the “protection against M1 (control drugs)” value in experiment [1] was “did not confer protection”. Also, the “depolarization of MDA-MB-231 cells in dose response (qualitative)” value with MDA-MB-231 cells [3] is given as “No depolarization”.
Take `NC(=O)NCCCCN(C[C@H]1Cc2ccccc2CN1)[C@H]1CCCc2cccnc21` [Compound 1]: the EC50 in experiment [1] (setting [8]) came to 0.3 nM; with MDA-MB-231 cells [3] (setting [7]), 0.8 nM. Also, the concentration for half-maximal inhibition (IC50) in the experiment with HIV-1IIIB (Human immunodeficiency virus 1, MAGI, read-out: HeLa HIV-1IIIB MAGI IC50) turned out to be 210 nM; on CXCR4 it was 4 nM.
Regarding `c1ccc(CNCCCCN(C[C@H]2Cc3ccccc3CN2)[C@H]2CCCc3cccnc32)nc1` [Compound 2], in the experiment on MDA-MB-231 cells [2], the “Apoptosis (%)” value worked out at 93%.
As for `NCCCCN(C[C@H]1Cc2ccccc2CN1Cc1cnccn1)[C@H]1CCCc2cccnc21` [Compound 3], the values for the EC50 (in experiment [1] (setting [8]); with MDA-MB-231 cells [3] (setting [7])) were 3.5 nM and 15 nM, respectively. For the same molecule, the figures for the IC50 with HIV-1IIIB (setting [6]) and on CXCR4 were 790 nM and 110 nM, respectively. In addition, the inhibition at 100 µM in the experiment on MDA-MB-231 cells [3] is at most 65%.
With `NCCCCN(C[C@H]1Cc2ccccc2CN1Cc1ccncn1)[C@H]1CCCc2cccnc21` [Compound 4], the figures for the EC50 (in experiment [1] (setting [4]); in the experiment on MDA-MB-231 cells [3] (setting [7])) were 52 nM and above 100000 nM, respectively. The IC50 with HIV-1IIIB (setting [5]) is below 100 nM; in the experiment on HIV-1IIIB (setting [6]), 3 nM; on CXCR4 it was 7700 nM. Further, in the experiment on MDA-MB-231 cells [3], the inhibition at 100 µM was around 20%. Also, in the experiment on MDA-MB-231 cells [3], the “depolarization of MDA-MB-231 cells (qualitative)” value is listed as “failed to depolarize”. For the same molecule, the “depolarization/apoptosis of MDA-MB-231 cells (qualitative)” value is “no apoptosis; also recorded: failed to depolarize” with MDA-MB-231 cells [3] and “no effect” in the experiment on MDA-MB-231 cells [3] (listed as compound 4).
For `NCCCN(C[C@@H]1CN(Cc2ccccc2)CCN1)[C@H]1CCCc2cccnc21` [Compound 5], the EC50 in experiment [1] (setting [8]) amounted to 10 nM; in the experiment with MDA-MB-231 cells [3] (setting [7]), 0.39 nM. The IC50 worked out at 30 nM in the experiment on HIV-1IIIB (setting [6]) and 190 nM at CXCR4.
For the molecule `CN(C[C@@H]1CN(Cc2ccccc2)CCN1)[C@H]1CCCc2cccnc21` [Compound 6], the EC50 is 53 nM in experiment [1] (setting [4]) and 10000 nM in the experiment on MDA-MB-231 cells [3] (setting [7]). For the same molecule, the IC50 with HIV-1IIIB (setting [5]) was below 100 nM; in the experiment on HIV-1IIIB (setting [6]), 850 nM; on CXCR4, 3300 nM. Moreover, the inhibition at 100 µM in the experiment with MDA-MB-231 cells [3] is at most 65%. In addition, the “depolarization of MDA-MB-231 cells (qualitative)” value in the experiment on MDA-MB-231 cells [3] is “failed to depolarize”.
As to `CN(C[C@@H]1CN(Cc2ccc(C(F)(F)F)cc2)CCN1)[C@H]1CCCc2cccnc21` [Compound 7], the EC50 was found to be 12700 nM in experiment [1] (setting [8]) and 85000 nM with MDA-MB-231 cells [3] (setting [7]). Besides, the IC50 is 8010 nM in the experiment with HIV-1IIIB (setting [6]) and above 50000 nM on CXCR4.
With `c1ccc(Cc2cn[nH]c2C2CCN(Cc3ccncc3)CC2)cc1` [Compound 8], the values for the EC50 (in experiment [1] (setting [8]); in the experiment on MDA-MB-231 cells [3] (setting [7]); in the experiment with MDA-MB-231 cells [3] (setting [9])) were 1100 nM, 28 nM and below 100 nM, respectively. In addition, the IC50 with HIV-1IIIB (setting [6]) came out at 780 nM. Besides, the “CXCR4 functional response in calcium flux assay (qualitative)” value at CXCR4 is given as “no measurable CXCR4 functional response”.
For the molecule `CC1(C)CN2C(CSC(=NC3CCCCC3)NC3CCCCC3)=CSC2=N1` [IT1t, reference compound], the EC50 in experiment [1] (setting [4]) was below 100 nM; in experiment [1] (concentration inhibiting M1-induced mitochondrial depolarization by 50%, 10 ng/mL M1, 24 h, listed as It1t, read-out: Jurkat M1 Inhibition EC50), 0.7 nM; in experiment [1] (concentration inhibiting M1-induced mitochondrial depolarization by 50%, 10 ng/mL M1, 24 h, read-out: Jurkat M1 Inhibition EC50), at most 1000 nM; in the experiment on MDA-MB-231 cells [3] (setting [7]) it was 6.25 nM. In addition, in the experiment on HIV-1IIIB (setting [6]), the IC50 came out at 10 nM. In addition, the “protection from M1-mediated apoptosis” value with Jurkat cells (prophylactic 50 nM, then M1) is on record as “complete protection”.
Consider `c1cnc(NCc2ccc(CNc3ncccn3)cc2)nc1` [MSX-122, reference compound], for which the EC50 is 12000 nM in experiment [1] (setting [8]), 81 nM with MDA-MB-231 cells [3] (setting [7]) and below 100 nM with MDA-MB-231 cells [3] (setting [9]). Also, the IC50 in the experiment with HIV-1IIIB (setting [6]) and on CXCR4 was above 10000 nM throughout. Besides, the “CXCR4 functional response in calcium flux assay (qualitative)” value on CXCR4 was “no measurable CXCR4 functional response”.
Take Maraviroc [reference compound]: the “protection against M1 (control drugs)” value in experiment [1] is recorded as “did not confer protection”. Besides, the “depolarization of MDA-MB-231 cells in dose response (qualitative)” value with MDA-MB-231 cells [3] is reported as “No depolarization”.
As to “TNAACAWLEAQ [Compound M1, pro-apoptotic peptide, residues 50–60 of HIV-1 Nef]”, in the experiment on Jurkat cells (10 ng/mL, 24 h, no antagonist), the “apoptosis induction in Jurkat cultures by peptide” value is on record as “displayed apoptosis”.
